For this assay, the target named is Protein cereblon/Bromodomain-containing protein 9 (Homo sapiens, UniProt Q9H8M2+Q96SW2). The assay can be described thus: Induction of CRBN-mediated GFP-fused BRD9 (unknown origin) degradation expressed in HEK293-A cells incubated for 24 hrs by flow cytometric analysis. The assay is classed as cell-based. A general note: Flow cytometry measures light scatter and fluorescence of single cells or particles in a stream.
Chain of Protein cereblon/Bromodomain-containing protein 9 (Q9H8M2 whole entry, the tested form may be a part): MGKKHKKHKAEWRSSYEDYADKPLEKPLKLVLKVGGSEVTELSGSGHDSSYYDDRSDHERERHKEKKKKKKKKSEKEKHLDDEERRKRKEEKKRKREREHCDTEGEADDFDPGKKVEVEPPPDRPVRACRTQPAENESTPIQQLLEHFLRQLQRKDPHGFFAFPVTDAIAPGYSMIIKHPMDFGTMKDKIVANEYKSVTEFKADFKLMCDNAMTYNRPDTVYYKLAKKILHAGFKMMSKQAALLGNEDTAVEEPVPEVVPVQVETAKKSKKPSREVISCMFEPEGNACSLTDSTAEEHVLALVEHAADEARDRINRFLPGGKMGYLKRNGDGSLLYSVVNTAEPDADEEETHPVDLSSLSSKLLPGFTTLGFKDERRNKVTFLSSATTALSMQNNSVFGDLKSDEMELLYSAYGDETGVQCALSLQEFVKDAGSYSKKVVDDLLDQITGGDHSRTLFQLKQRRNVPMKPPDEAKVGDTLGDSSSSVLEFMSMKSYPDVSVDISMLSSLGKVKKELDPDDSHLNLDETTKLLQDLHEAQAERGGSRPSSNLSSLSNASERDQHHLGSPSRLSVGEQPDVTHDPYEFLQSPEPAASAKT
Chain of Protein cereblon/Bromodomain-containing protein 9 (Q96SW2 whole entry, the tested form may be a part): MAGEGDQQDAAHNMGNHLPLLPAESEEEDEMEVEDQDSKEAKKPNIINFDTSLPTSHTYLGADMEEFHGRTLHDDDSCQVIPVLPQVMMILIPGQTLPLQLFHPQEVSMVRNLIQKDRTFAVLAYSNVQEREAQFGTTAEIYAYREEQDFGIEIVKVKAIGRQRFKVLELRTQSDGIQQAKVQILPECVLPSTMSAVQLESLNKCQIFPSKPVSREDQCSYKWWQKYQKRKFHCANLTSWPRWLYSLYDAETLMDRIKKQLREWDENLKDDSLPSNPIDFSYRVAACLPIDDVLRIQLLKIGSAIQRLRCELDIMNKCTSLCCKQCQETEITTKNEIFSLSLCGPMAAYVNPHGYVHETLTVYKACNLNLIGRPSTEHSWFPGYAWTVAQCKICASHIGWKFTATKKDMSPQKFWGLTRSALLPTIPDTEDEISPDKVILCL
What is called DC50 is the midpoint of the concentration-degradation curve. As to `CCCCn1cc(-c2ccc(O[C@H]3CCN(CC4CCN(C(=O)c5ccc(OC)c(N6CCC(=O)NC6=O)c5)CC4)C[C@@H]3F)c(OC)c2)c2ccncc2c1=O`, half-maximal degradation (DC50) was put at 1 nM.
As for `CCCCn1cc(-c2ccc(OC3CCN(CC4CCN(C(=O)c5ccc(Cl)c(N6CCC(=O)NC6=O)c5)CC4)CC3)c(OC)c2)c2ccncc2c1=O`, the 50% degradation concentration (DC50) is 1 nM. In other words, the single-digit nanomolar range.
`COc1cc(-c2cn(C)c(=O)c(C)c2C)cc(OC)c1CCN1CCC(OC2CCN(C(=O)c3ccc(Cl)c(N4CCC(=O)NC4=O)c3)CC2)CC1`: the 50% degradation concentration (DC50) is 1 nM.
The figure for `COc1cc(-c2cn(C)c(=O)c3cnccc23)cc(OC)c1CCN1CCC(OC2CCN(C(=O)c3ccc(Cl)c(N4CCC(=O)NC4=O)c3)CC2)CC1` is 1 nM; for `CCCCn1cc(-c2cc(F)c(O[C@H]3CCN(CC4CCN(C(=O)c5ccc(OC)c(N6CCC(=O)NC6=O)c5)CC4)C[C@@H]3F)c(F)c2)c2ccncc2c1=O` it is 1 nM; for `CCCCn1cc(-c2cc(OC)c(OC3CCN(CC4CCN(C(=O)c5ccc(Cl)c(N6CCC(=O)NC6=O)c5)CC4)CC3)c(OC)c2)c2ccncc2c1=O` it is 1 nM.

The values are drawn from ChEMBL document CHEMBL4840381, “BRD9 Bifunctional Degraders for Treating Cancer” (ACS Med Chem Lett, 2021).
